Assay results taken from publication PMC5578999, “Novel quinolone chalcones targeting colchicine-binding pocket kill multidrug-resistant cancer cells by inhibiting tubulin activity and MRP1 function” (Scientific Reports, 2017).

Assays:
[1] = test system: MDA-MB-231 triple-negative metastatic breast cancer cells; assay: Antitumor activity in engrafted athymic mice; format: in vivo, ATH490 athymic mice; conditions: for tumor volume Day 0 / tumor volume Day 6: Tax 10 mg/kg i.v. once/week, CTR 30 mg/kg i.p. every 3-4 days, combinations Tax 5 + CTR 15 mg/kg once/week; for tumor volume Day 6: sham 105.03; for tumor volume Day 14 / tumor volume Day 17 / tumor volume Day 20 / tumor volume Day 24 / tumor volume Day 27 / tumor volume Day 30: same doses; for tumor volume Day 14: sham 136.66; for tumor volume Day 17: sham 162.62; for tumor volume Day 20: sham 192.69; for tumor volume Day 24: sham 268.08; for tumor volume Day 27: sham 426.87; for tumor volume Day 30: sham 557.66
Description: The animals were then immediately euthanized by carbon dioxide. […]
Supplementary Table S2. A typical treatment protocol of engrafted mice with CTR alone or in
combination with paclitaxel.
Treatment Dos a ge Frequ enc y Route Notes
Sham control Highest volume E v e r y 3-4 d a ys Intraperitoneal (I.P.) Vehicle onl y
Taxa 10 mg/kgb Once/week Intravenous ( I.V.)
CTR-17 (30) 30 mg/kg E v e r y 3-4 d a ys I. P .
CTR-20 (30) 30 mg/kg E v e r y 3-4 d a ys I. P .
Supplementary Table S 3: Antitumor activity of CTR -17 and CTR -20, alone or in combination
a Tax: paclitaxel. b mg per kg of bod y wei ght. c unit is mm 3. […]

[2] = Serum ALT and AST, CD1 mice; conditions: paclitaxel 10 mg/kg, CTR 30 mg/kg, combinations paclitaxel 5 + CTR 15 mg/kg, vehicle 38.76 ± 0.17, in U/L (unit assumed)
Description: Alanine transaminase (ALT, SUP6001-c) and Aspartate transaminase (AST, SUP6002-c) color endpoint assay kits were purchased from ID Labs (London, Ontario, Canada).
Blood samples were collected via cardiac puncture and processed for ALT and AST measurements. The animals were then immediately euthanized by carbon dioxide.

SW-1271 = assay: SRB cell viability; format: cell-based; conditions: SW1271
Description: Cell line authentication was carried out by Genetica DNA
(§1) Cell viability, com binational i ndex and cell synchronization
Cell viability and proliferation were ex amined using a s ulforhodamine B (SRB) assa y as […]
IC 50 values were calculat ed from si gmoidal dose-response cu rves gen erat ed b y at least two indepen dent ex periments , with each quadruplicate samples, using GraphPad Prism v.5.04 software (GraphPad Software, Inc, La J olla, CA). […]
(sham) or presence of compound(s). […]

MCF 10A = assay: SRB cell survival, MCF 10A isogenic lines; format: cell-based; conditions: 0.39 μmol/L; MCF 10A (non-cancer)
Description: (§2) and MCF10AT1 cells were cultured in Dulbecco's Modified Eagle's Medium/Ham's Nutrient Mixture F-12 (DME/F12) supplemented with 10% (volume/volume) FBS , 100 μg/ml streptom ycin and 100 units/ml penicillin, antim ycotic solution, 0.5 μg/ml hydrocortisone, 10 ng/ml human epiderm al growth factor (hEGF) and 5 μg/ml insulin, whereas MCF10CA1a cell line was cultured in DM EM supplemented with 10% FBS (volume/volume). KB-3- 1, parental human epidermoid carcinoma cell line and KB-C2, an isogenic MDR1- overexpressing drug-resistant cell line, were kindl y provided b y Dr. Amit K Tiwari, the Universit y of Toledo, OH.
(§3) Parental HEK293 and M RP1- overexpressing HEK293- MRP1 isogenic cel ls were kind gifts of Dr. Susan Cole (Queen’s Universit y, Kingston, Ontario, Canada). The pacl itaxel-resistant MDA-MB-231TaxR cell line was generated in house b y culturing MDA-MB-231 cells (purchased from ATCC and authen ticated ) in the gradual l y incr easi ng con centr ations of pacl itax el until the concentration reached to 100 nM. Cell line authentication was carried out by Genetica DNA Laboratories (Burlington, NC) using a short tandem repeat (STR) profiling method (March 2015; […]
as §1
(§4) Cell viability and proliferation were ex amined using a s ulforhodamine B (SRB) assa y as described previousl y (Hu et al., 2008). IC 50 values were calculat ed from si gmoidal dose-response cu rves gen erat ed b y at least two indepen dent ex periments , with each quadruplicate samples, using GraphPad Prism v.5.04 software (GraphPad Software, Inc, La J olla, CA). For combinational experiments on the KB -C-2 cells, CTR compounds and pacli taxel or ABT - 737/ABT-199 w ere us ed at or below IC 50 . The combinational index (CI) w as calculat ed as previousl y described (Chou, 2006). […]
(§5) Cell cycl e pro gr ession in the absence (sham) o r pr esence o f compound(s ) was determined with a Beckman Coulter Epics Elite FC 500 Flow C ytom eter as described previousl y (Romero

MCF 10CA1a = assay: SRB cell survival, MCF 10A isogenic lines; format: cell-based; conditions: 0.39 μmol/L; MCF 10AC1a (fully malignant)
Description: as §2, §3, §1, §4, §5

MCF 10AT1 = assay: SRB cell survival, MCF 10A isogenic lines; format: cell-based; conditions: 0.39 μmol/L; MCF 10AT1 (premalignant)
Description: as §2, §3, §1, §4, §5

MDR1 = assay: Rh123 dye efflux assay, KB-C-2 cells; format: cell-based; conditions: MDR1, KB-C-2 cells; 22 µmol/L of drug; DMSO control 58.0%
Description: Rhodamine123 (Rh123) drug efflux was carried out using a Multidrug-Resistance Direct Dye Efflux Activity Kit (Millipore, Darmstadt, Germany), with some modifications. […] Reading was carried out with a Beckman Coulter FC500 flow cytometer.

U87MG = assay: SRB cell viability/proliferation; format: cell-based; conditions: Homo sapiens, U-87 MG
Description: as §2, §3, §5

MDA-MB-468 = assay: SRB cell viability/proliferation; format: cell-based; conditions: Homo sapiens
Description: as §2, §3, §5

Structure (SMILES) | tumor volume Day 0 [1] [mm3] | tumor volume Day 6 [1] [mm3] | tumor volume Day 14 [1] [mm3] | tumor volume Day 17 [1] [mm3] | tumor volume Day 20 [1] [mm3] | tumor volume Day 24 [1] [mm3] | tumor volume Day 27 [1] [mm3] | tumor volume Day 30 [1] [mm3] | levels of ALT and AST [2] | IC50 (SW-1271) [nM] | cell survival rate (MCF 10A) [%] | cell survival rate (MCF 10CA1a) [%] | cell survival rate (MCF 10AT1) [%] | Rh123 retention (MDR1) [%] | IC50 (U87MG) [nM] | IC50 (MDA-MB-468) [nM]
COc1ccccc1C(=O)/C=C/c1cc2ccccc2[nH]c1=O [CTR-17, (E)-3-(3-(2-Methoxyphenyl)-3-oxoprop-1-enyl)quinolin-2(1H)-one] | 86.71 | 63.99 | 90.07 | 128.36 | 134.76 | 160.86 | 189.45 | 209.84 | 37.02 ± 1.46 | 1140 ± 40 |  |  |  |  |  | 
COc1ccc2[nH]c(=O)c(/C=C/C(=O)c3ccccc3OC)cc2c1 [CTR-20, (E)-6-Methoxy-3-(3-(2-methoxyphenyl)-3-oxoprop-1-enyl) quinolin-2(1H)-one] | 92.51 | 69.89 | 84.64 | 97.11 | 97.22 | 106.26 | 124.88 | 140.63 | 30.43 ± 0.49 | 1950 ± 10 | 75 | 10 | 20 | 57.9 | 1110 | 120
